For the assay, the system named is DPH-labelled synthetic vesicles. Kind of assay: Synthetic vesicle membrane fluidity assay (DPH fluorescence polarisation). The settings on record: increasing SSA concentration; polar phospholipid membranes, excluding PC only; 298 K. As for the experimental part:
To further explore the effects of SSAs on physical phospholipid membrane characteristics, membrane fluidity experiments were performed. Here a dye (1,6-diphenyl-1,3,5-hexatriene – DPH) was inserted into the synthetic vesicle membrane to enable the study of increased/decreased membrane fluidity through competitive fluorescence polarisation (FP) measurements. In these studies, FP values are found to decrease with increasing membrane fluidity and vice versa. However, these studies could only be performed with SSAs 1–4 and 7 due to overlapping SSA/DHP fluorescence emission.
Section 2: General Methods […]
All solvents and starting materials were purchased from known chemical suppliers or available stores and used without any further purification unless specifically stipulated. […] Fluorescence and fluorescence polarisation measurements were conducted using a Clariostar plate reader and analysed using MARS data analysis […]
Preparation of calcein loaded vesicles: Lipid films were resuspended in buffer A (70 mM calcein, 10 mM TRIS pH 8.5, 0.5 mM EDTA, 110 mM NaCl, pH adjusted to 6-7) and subjected to 9 freeze-thaw cycles in liquid nitrogen and extruded 20 times through a 200 nm polycarbonate membrane. […] The hydrodynamic dimeter of the lipids was monitored using an Anton Paar LitesizerTM 500 to ensure the separation of free and entrapped calcein. […]

One compound from publication PMC9400670, “Establishing the selective phospholipid membrane coordination, permeation and lysis properties for a series of ‘druggable’ supramolecular self-associating antimicrobial amphiphiles” (Chemical Science, 2022) can be followed below.

SMILES strings stand for the structures.

Consider `O=C(O)CNC(=O)Nc1ccc(C(F)(F)F)cc1` [SSA 4], for which the “overall change in FP (membrane fluidity)” value is listed as above 10%.
